Consider two molecules from patent publication US10899754B2, “Modulators of indoleamine 2,3-dioxygenase” (GLAXOSMITHKLINE INTELLECTUAL PROPERTY DEVELOPMENT LIMITED, priority 2016, dated 2021).

Read-outs that look alike come from different tables or passages of the source.

In data set [1] the target is indoleamine 2, 3-dioxygenase (IDO1) (Homo sapiens, UniProt P14902). As to the kind of experiment: IDO1 PBMC RapidFire MS assay (kynurenine detection by mass spectrometry). In kind it is cell-based. Conditions: human PBMC stimulated with IFN-γ and LPS, 2 days, pIC50, read-out: PBMC PXC50 (converted). On the set-up: to induce the expression of indoleamine 2, 3-dioxygenase (IDO1); host or cells: human PBMC stimulated with IFN-gamma and LPS. The gist of the method:
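Kynurenine output, read by RapidFire mass spectrometry as ratio to an internal standard, was measured after 2-day compound exposure (11-point, 3-fold dilutions) of human PBMCs induced with 100 ng/ml IFN-γ and 50 ng/ml LPS. Cell viability tracked alongside via ATP luminescence; XC50 from curve fitting.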

Data set [2] is described as follows: Toxicokinetics in Beagle dogs, 7 day repeat oral administration. The format is in vivo. Conditions: 20 mg/kg PO BID; for Therapeutic Index AUC (0-12 hr): versus predicted human efficacious AUC 0.376 μg * hr/mL; for Therapeutic Index Cmax: versus predicted human efficacious Cmax 0.078 μg/mL; for Cmax / AUC(0-t): Beagle, dog, po, 20 mg/kg; for Cmax / AUC(0-t) / Tmax: plasma; for AUC(0-t): Subject 1, read-out: AUC (0-12 hr). The source says:
(§1) To understand its toxicokinetics and potential effect on hepatic functions, EXAMPLE 23 was orally dosed to Beagle dogs for 7 consecutive days.

A short description of data set [3]: Tolerability, body weight and hepatic functions in Beagle dogs, 7 day repeat oral administration. The settings on record: Beagle dog, 20 mg/kg PO BID for 7 days. The format is in vivo. On the procedure:
FIG. 1 is daily body weights of Beagle dogs during the study of example 23, 20 mg/kg PO BID dose.
FIG. 2 is daily hepatic enzyme levels of Beagle dogs during the study: ALT (alanine aminotransferase), AST (aspartate aminotransferase), ALP (alkaline phosphatase) and T-Bil (total bilirubin) for example 23, 20 mg/kg PO BID dose.
as §1

Chain of indoleamine 2, 3-dioxygenase (IDO1) (P14902 whole entry): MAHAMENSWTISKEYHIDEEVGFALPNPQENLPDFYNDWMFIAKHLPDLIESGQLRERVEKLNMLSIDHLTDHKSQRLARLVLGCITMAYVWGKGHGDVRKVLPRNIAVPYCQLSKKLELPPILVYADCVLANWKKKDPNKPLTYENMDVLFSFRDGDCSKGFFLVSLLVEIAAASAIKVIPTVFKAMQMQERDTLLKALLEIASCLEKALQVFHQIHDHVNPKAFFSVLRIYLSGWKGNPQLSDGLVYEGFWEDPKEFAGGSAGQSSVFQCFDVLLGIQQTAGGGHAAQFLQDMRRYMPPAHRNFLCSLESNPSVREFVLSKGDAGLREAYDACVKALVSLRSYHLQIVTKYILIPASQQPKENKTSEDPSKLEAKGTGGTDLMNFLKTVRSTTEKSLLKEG

One may read the Cmax as the highest concentration seen after dosing. A word on the Tmax: it is the time at which the peak concentration occurs. As to `CC(C)CN(c1ccc([C@H](C)CC(=O)O)cc1Nc1nnc(C2CC2)s1)C1CCOCC1` [Example 23, (R)-3-(3-((5-cyclopropyl-1,3,4-thiadiazol-2-yl)amino)-4-(isobutyl (tetrahydro-2H-pyran-4-yl)amino)phenyl)butanoic Acid], in data set [1], the IC50 was 3.16 nM. For the same molecule, the “Therapeutic Index AUC (0-12 hr)” value in data set [2] (Beagle dog, Day1, Female) was 4; in data set [2] (Beagle dog, Day1, Male), 14; in data set [2] (Beagle dog, Day7, Female) it was 10; in data set [2] (Beagle dog, Day7, Male) it was 40. Besides, the “Therapeutic Index Cmax” value is reported as 13 in data set [2] (Beagle dog, Day1, Female); 31 in data set [2] (Beagle dog, Day1, Male); 50 in data set [2] (Beagle dog, Day7, Female); 81 in data set [2] (Beagle dog, Day7, Male). Moreover, in data set [2] (Beagle dog, Day 7, average), the “Therapeutic coverage in AUC0-12 for the predicted human efficacious dose” value is on record as about 25 fold. In addition, the “Therapeutic coverage in Cmax for the predicted human efficacious dose” value in data set [2] (Beagle dog, Day 7, average) is reported as about 66 fold. Besides, the “Time quantifiable in plasma post the start of the oral dose” value in data set [2] (Beagle dog, Days 1 and 7) was “up to 24 hours”. The “Increase in systemic exposures (Cmax and AUC0-12 values) on Day 7 in comparison to Day 1” value in data set [2] (Beagle dog, both dogs) is reported as about 3 fold. Besides, the Cmax in data set [2] (female, Day1, Female, Subject 1) came to 1000 ng/mL; in data set [2] (female, Day7, Female, Subject 1), 3900 ng/mL; in data set [2] (male, Day1, Male, Subject 1) it was 2400 ng/mL; in data set [2] (male, Day7, Male, Subject 1), 6300 ng/mL. In addition, the AUC(0-t) in data set [2] (female, Day1, Female) is 1500 ng·h/mL; in data set [2] (female, Day7, Female), 3800 ng·h/mL; in data set [2] (male, Day1, Male), 5100 ng·h/mL; in data set [2] (male, Day7, Male), 14900 ng·h/mL. In addition, the Tmax in data set [2] (Beagle dog, Day1, Male, Subject 1) came to 30 min; in data set [2] (Beagle dog, Day7, Female, Subject 1) it was 30 min; in data set [2] (Beagle dog, post dose on Days 1 and 7) it was 30 min. The Clinical observations result in data set [3] was “no clinical observations were made”. Moreover, the “Tolerability throughout the study” value in data set [3] was “well tolerated”. Besides, the “Hepatic functions measured by serum ALT, AST, ALP and T-Bil levels” value in data set [3] (FIG. 2) is listed as “in the normal variable ranges”. The Body weights result in data set [3] (male and female, FIG. 1) is listed as “constant”.

On to `CC(C)CN(c1ccc([C@H](C)CC(=O)O)cc1Nc1nc(C(F)(F)F)ns1)C1CCOCC1` [Example 20, (R)-3-(4-(Isobutyl(tetrahydro-2H-pyran-4-yl)amino)-3-((3-(trifluoromethyl)-1,2,4-thiadiazol-5-yl)amino)phenyl)butanoic Acid], for which, in data set [1], the IC50 is 2.51 nM.
